The test system of assay [1] is Caco-2. As to the kind of experiment: MTS cytotoxicity assay, Caco-2. The class given is cell-based. On the procedure: (§1) Cultivation of the cancer cell lines MCF-7, Hep3B, HepG2, and Caco-2 HeLa was conducted in RPMI 1640 medium, whereas LX-2, B16-F1, and HEK-293T cells were grown in DMEM medium. These cells were incubated at 37 °C in a 5% CO2 atmosphere within a humid setting. In a 96-well plate, 1000 cells were seeded in each well. Following a 24 h incubation, they were exposed to various concentrations of Ia-IIe compounds (300, 100, 50, and 10 µM) for 72 h. The Cell-Tilter 96® (Promega Corporation, Madison, WI, USA) Aqueous One Solution Cell Proliferation (MTS) bioassay was utilized to determine the cell viability post-culture. For this assay, 90 µL of medium and 10 µL of MTS solution were added to every well, and the plates were then placed in a 37 °C environment for 2 to 4 h. The absorbance was subsequently assessed at a wavelength of 490 nm using a UV–Vis spectrophotometer.

The test system of assay [2] is Hep3B. In words: MTS cytotoxicity assay, Hep3B. It is filed as cell-based. The following applies: 72 h. On the procedure: as §1
In general terms: Tetrazolium dyes change colour on reduction, which living cells bring about.

The subject of assay [3] is HeLa. As to the kind of experiment: MTS cytotoxicity assay, HeLa. It is filed as cell-based. The following applies: 72 h. The method, then:
as §1

Assay [4] relates to MCF-7. As to the kind of experiment: MTS cytotoxicity assay, MCF-7. It is filed as cell-based. The method, then:
as §1

In assay [5] the test system is HepG2. As to the kind of experiment: MTS cytotoxicity assay, HepG2. The class given is cell-based. On the procedure: as §1
The subject of assay [6] is LX-2. In words: MTS cytotoxicity assay, LX-2. It is filed as cell-based. The method, then: as §1
Assay [7] relates to Hek293t normal cell line. In words: MTS cytotoxicity assay, Hek293t normal cell line. The class given is cell-based. The settings on record: 72 h. On the procedure:
as §1

Assay [8] has as its system streptozotocin-induced diabetic mice. In words: In vivo hypoglycemic effect in STZ-induced diabetic mice. The settings on record: five daily i.p. doses of 10 mg/kg, fasting, 252.2 mg/dL before treatment, untreated diabetes group 274.25 mg/dL. The source says:
The mice-related investigations were meticulously conducted, adhering strictly to the protocols outlined by the Association for Assessment and Accreditation of Laboratory Animal Care International. The ethical underpinning of these experiments was formally acknowledged, having secured the approval of the Institutional Review Board of the Animal House and Use Committee at An-Najah National University (approval number: Med. June. 2023/9).
The study’s protagonists consisted of 18 healthy adult mice gracing the stage with a weight symphony ranging from 17 to 27 g. These cherished participants were thoughtfully accommodated in groups of three within the hospitable confines of the animal facility. In an overture of preparation, the mice were granted 7 days to acquaint themselves with the ambiance of the animal facility, enveloped within the embrace of controlled temperature conditions, a harmonious 25 ± 2 °C.
In the experiment, the mice were subjected to diabetes induction via an intraperitoneal (i.p.) injection of streptozotocin (STZ). […] In order to ascertain the induction of diabetes, the fasting blood glucose levels of the mice were assessed on the fourth day after the injection of STZ. […]
In this research, the fasting blood glucose levels for all groups were measured on the first day before the induction of diabetes using a streptozotocin (STZ) injection. […]

Assay [9] addresses T1, α-amylase (Homo sapiens, UniProt P04746).
T1 sequence (P04746 16-511): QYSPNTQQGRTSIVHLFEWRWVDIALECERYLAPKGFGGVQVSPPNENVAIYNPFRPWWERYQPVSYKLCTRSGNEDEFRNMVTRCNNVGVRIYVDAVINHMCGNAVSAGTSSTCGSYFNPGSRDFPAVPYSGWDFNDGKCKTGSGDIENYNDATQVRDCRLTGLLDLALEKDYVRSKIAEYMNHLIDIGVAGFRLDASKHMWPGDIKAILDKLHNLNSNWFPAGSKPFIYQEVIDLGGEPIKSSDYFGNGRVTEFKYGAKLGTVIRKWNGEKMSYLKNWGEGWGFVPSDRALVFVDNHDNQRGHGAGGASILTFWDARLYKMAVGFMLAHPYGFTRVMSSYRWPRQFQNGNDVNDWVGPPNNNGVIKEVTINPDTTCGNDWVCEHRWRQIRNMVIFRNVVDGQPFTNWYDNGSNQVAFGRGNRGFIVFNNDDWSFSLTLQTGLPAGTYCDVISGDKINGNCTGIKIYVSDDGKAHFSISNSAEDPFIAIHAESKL
In words: α-amylase inhibition, DNSA method. It is filed as biochemical.
Experimental: The experiment was conducted using the 3,5-dinitrosalicylic acid (DNSA) approach. Buffer solutions were prepared, containing 20 mm of both sodium phosphate monobasic and sodium phosphate dibasic, and were augmented with 6.7 mm sodium chloride (NaH2PO4 and Na2HPO4, each at 6.7 mm NaCl, pH 6.9). A beaker was filled partially with NaH2PO4 and NaCl solution and stirred magnetically, and the pH was meticulously calibrated using a specialized electrode. The desired pH of 6.9 was achieved by adding more NaH2PO4 and NaCl to the solution.
The stock solution consisted of synthesized molecules at a 1 mg/mL concentration, harmoniously blended with no less than 10% DMSO in a 1:100 dilution. This mixture was then united with a buffer composed of Na2HPO4/NaH2PO4 (0.02 M) and NaCl (0.006 M), maintaining a pH of 6.9. From this, working solutions were created at concentrations ranging from 0.1 to 100 µM. These comprised 0.01, 0.1, 0.5, 1, and 5 mL of the synthesized molecules diluted with the pH-adjusted buffer and brought to a total volume of 10 mL using VF (10 mL).
This transformative amalgam journeyed to attain a final volume of 100 mL, seamlessly infused with the phosphate buffer discussed earlier, harmonizing within a 100 mL volumetric flask (VF). Meanwhile, the starch solution, poised at a concentration of 1% (w/v), saw the suspension of 1000 mg of starch in 100 mL of distilled water, orchestrated with finesse within a 100 mL VF. This aqueous symphony unfolded in a temperate embrace of 37 °C within a water bath, occasionally stirring to deter any starch precipitation inklings.
The overture of this reaction was orchestrated by DNSA—a reactive virtuoso that commences its dance upon encountering reducing sugars, conjuring forth 3-amino-5-nitro salicylic acid, a spectral charmer at the wavelength of around 540 nm. The creation of DNSA itself, an artful process, saw the dissolution of 12 g of sodium potassium tartrate tetrahydrate within 8.0 mL of 2 M NaOH, further entwined with 20 mL of the enchanted 96 mm 3.5-dinitrosalicylic acid solution. Thus, the stage was set for this chemical ballet, where reactions waltzed, and absorbance painted a canvas of molecular magic. […]
The climax of this reaction narrative was unveiled as 200 μL of DNSA entered the stage, promptly followed by a vigorous boiling performance for 10 min, orchestrated at the harmonious temperature range of 85 to 90 °C. […] In a final crescendo, the resounding absorbance at 540 nm resounded as it was masterfully measured utilizing the UV-Visible spectrophotometer.
In order to produce the initial state, the blank canvas was used to substitute the synthesized chemicals, adding 200 μL of buffer. […] This captivating performance culminated with quantifying enzyme inhibitory activity expressed as a percentage of inhibition. […]

Assay [10] deals with T1, α-amylase. The following applies: control compound IIe; cited from earlier work.
The target in assay [11] is T1, α-amylase. The following applies: cited from earlier work.
Assay [12] has as its system cancer cell lines. As to the kind of experiment: MTS cytotoxicity assay, range over cell lines. The class given is cell-based. The method, then: as §1

Where two headings read alike, the source gives them in different places. Bounds are passed on as bounds.

The IC50 is the midpoint of a concentration-inhibition curve.

For `O=C(Cc1ccc2c(c1)OCO2)Nc1ccccc1` [Ib, 2-(benzo[d][1,3]dioxol-5-yl)-N-phenylacetamide], the IC50 is over 300 µM in assay [1] (Homo sapiens, Caco-2, 72 h); over 300 µM in [2] (Homo sapiens, Hep3B); over 300 µM in [3] (Homo sapiens, HeLa); over 300 µM in [4] (Homo sapiens, MCF7, 72 h); over 300 µM in [5] (Homo sapiens, HepG2, 72 h); 280.6 ± 2.33 µM in [6] (Homo sapiens, LX-2, 72 h). The compound further gave an IC50 in [7] (Homo sapiens, HEK-293T) of 269.2 ± 1.73 µM.

`O=C(Nc1cccc(C(F)(F)F)c1)c1ccc2c(c1)OCO2` [IIc, N-(3-(trifluoromethyl)phenyl)benzo[d][1,3]dioxole-5-carboxamide]: in assay [8], the “blood glucose level after treatment” value worked out at 173.8 mg/dL. The IC50 is over 300 µM in assay [1] (Homo sapiens, Caco-2, 72 h); over 300 µM in assay [2] (Homo sapiens, Hep3B); over 300 µM in assay [3] (Homo sapiens, HeLa); over 300 µM in assay [4] (Homo sapiens, MCF7, 72 h); over 300 µM in assay [5] (Homo sapiens, HepG2, 72 h); over 300 µM in [6] (Homo sapiens, LX-2, 72 h). Moreover, the IC50 in assay [7] is 156 ± 2.98 µM; in assay [7] (Homo sapiens, HEK-293T) it was over 150 µM.

Regarding `O=C(Nc1ccccc1)c1ccc2c(c1)OCO2` [IIa, N-phenylbenzo[d][1,3]dioxole-5-carboxamide], the IC50 in assay [1] (Homo sapiens, Caco-2, 72 h) was over 300 µM; in assay [2] (Homo sapiens, Hep3B) it was over 300 µM; in assay [3] (Homo sapiens, HeLa), over 300 µM; in assay [4] (Homo sapiens, MCF7, 72 h), over 300 µM; in assay [5] (Homo sapiens, HepG2, 72 h) it was over 300 µM; in assay [6] (Homo sapiens, LX-2, 72 h), over 300 µM. Also, the IC50 in assay [9] is 0.85 ± 0.18 µM; in assay [7], over 300 µM; in assay [7] (Homo sapiens, HEK-293T), over 150 µM.

Regarding `COc1cc(NC(=O)c2ccc3c(c2)OCO3)cc(OC)c1` [IIe, N-(3,5-dimethoxyphenyl)benzo[d][1,3]dioxole-5-carboxamide], the half-maximal inhibitory concentration (IC50) in assay [1] (Homo sapiens, Caco-2, 72 h) is over 300 µM; in assay [2] (Homo sapiens, Hep3B) it was over 300 µM; in assay [3] (Homo sapiens, HeLa) it was over 300 µM; in assay [4] (Homo sapiens, MCF7, 72 h) it was over 300 µM; in assay [5] (Homo sapiens, HepG2, 72 h), over 300 µM; in assay [6] (Homo sapiens, LX-2, 72 h), 183 ± 2 µM. Also, the IC50 was 15 ± 3.52 µM in assay [10] and over 300 µM in [7] (Homo sapiens, HEK-293T).

For `COC(=O)Cc1cc2c(cc1C(=O)c1ccccc1Br)OCO2` [St.2], the IC50 in assay [11] (earlier work of the same team) is 6.81 µM.

Regarding `COc1cccc2c1C(=O)c1c(O)c3c(c(O)c1C2=O)C[C@@](O)(C(=O)CO)C[C@@H]3O[C@H]1C[C@H](N)[C@H](O)[C@H](C)O1` [DOX, reference compound], the IC50 in assay [1] (72 h) was 0.024 ± 0.001 µM; in assay [2], 0.025 ± 0.005 µM; in assay [3] it was under 0.01 µM; in assay [4] (72 h), 0.053 ± 0.009 µM; in assay [5] (72 h) it was under 0.01 µM; in [6] (72 h), 0.21 ± 0.12 µM. In [7], this compound came in with a concentration for half-maximal inhibition (IC50) of 0.038 ± 0.02 µM.

Regarding `Oc1cc(O)cc(Oc2c(O)cc(Oc3c(O)cc(O)cc3O)cc2O)c1` [DDBT, 2-(4-(3,5-dihydroxyphenoxy)-3,5-dihydroxyphenoxy) benzene-1,3,5-triol], the IC50 in assay [11] was 8.5 µM.

With `COc1cc(NC(=O)c2ccc3c(c2)OCO3)cc(OC)c1OC` [IIb, N-(3,4,5-trimethoxyphenyl)benzo[d][1,3]dioxole-5-carboxamide], the 50% inhibitory concentration (IC50) is over 300 µM in assay [1] (Homo sapiens, Caco-2, 72 h); over 300 µM in [2] (Homo sapiens, Hep3B); over 300 µM in [3] (Homo sapiens, HeLa); over 300 µM in assay [4] (Homo sapiens, MCF7, 72 h); over 300 µM in assay [5] (Homo sapiens, HepG2, 72 h); 96.6 ± 2.7 µM in assay [6] (Homo sapiens, LX-2, 72 h). In assay [7] (Homo sapiens, HEK-293T), this compound came in with an IC50 of over 300 µM.

For `COc1cc(OC)cc(C(=O)c2ccc3c(c2)OCO3)c1` [St.3], in assay [11] (earlier work of the same team), the half-maximal inhibitory concentration (IC50) was 15 µM.

Regarding `O=c1[nH]cc(F)c(=O)[nH]1` [Compound 5-FU, reference compound], the IC50 in assay [1] (72 h) was 4.75 ± 1.71 µM; in assay [2] it was 5.11 ± 1.67 µM; in assay [3], 7.79 ± 1.6 µM; in [4] (72 h), 6.51 ± 1.82 µM; in [5] (72 h) it was 4.07 ± 1.42 µM; in assay [6] (72 h) it was 0.178 ± 0.11 µM.

Consider `COc1cc(NC(=O)Cc2ccc3c(c2)OCO3)c(OC)cc1Cl` [Ia, 2-(benzo[d][1,3]dioxol-5-yl)-N-(4-chloro-2,5-dimethoxyphenyl)acetamide], for which the IC50 in assay [1] (Homo sapiens, Caco-2, 72 h) was over 300 µM; in assay [2] (Homo sapiens, Hep3B), 197 ± 1.99 µM; in [3] (Homo sapiens, HeLa), 43.6 ± 2.97 µM; in [4] (Homo sapiens, MCF7, 72 h), 124 ± 2.73 µM; in [5] (Homo sapiens, HepG2, 72 h) it was 169 ± 2.16 µM; in assay [6] (Homo sapiens, LX-2, 72 h) it was 70.6 ± 2.45 µM. The IC50 in assay [9] was 16.8 ± 1.55 µM; in [7] (Homo sapiens, HEK-293T) it was over 300 µM.

Turning to `COc1ccc(OC)c(NC(=O)Cc2ccc3c(c2)OCO3)c1` [Ic, 2-(benzo[d][1,3]dioxol-5-yl)-N-(2,5-dimethoxyphenyl)acetamide], the IC50 in [1] (Homo sapiens, Caco-2, 72 h) was over 300 µM; in assay [2] (Homo sapiens, Hep3B), over 300 µM; in [3] (Homo sapiens, HeLa), over 300 µM; in [4] (Homo sapiens, MCF7, 72 h), over 300 µM; in [5] (Homo sapiens, HepG2, 72 h), over 300 µM; in assay [6] (Homo sapiens, LX-2, 72 h) it was 209 ± 2.2 µM. For the same compound, the IC50 in [9] stood at 16.4 ± 1.58 µM; in assay [7] (Homo sapiens, HEK-293T), 207 ± 2.59 µM.

For `N#C/C=C1/C=C(c2ccc(Br)cc2)N=C2Sc3ccccc3N21` [St.1], the IC50 in assay [11] is 15.3 µM.

On to `COc1ccccc1Oc1ccc(NC(=O)c2ccc3c(c2)OCO3)cc1` [IId, N-(4-(2-methoxyphenoxy)phenyl)benzo[d][1,3]dioxole-5-carboxamide], for which the concentration for half-maximal inhibition (IC50) in [1] (Homo sapiens, Caco-2, 72 h) is over 300 µM; in assay [2] (Homo sapiens, Hep3B), 65.2 ± 2.53 µM; in [3] (Homo sapiens, HeLa), 26.6 ± 2.41 µM; in assay [12] (Homo sapiens, Caco-2, four cancer cell lines / all cell lines except Caco-2), 26 to 65 µM; in assay [12] (four cancer cell lines / all cell lines except Caco-2), 26.6 to 65.2 µM; in assay [4] (Homo sapiens, MCF7, 72 h), 55.8 ± 2.51 µM. The half-inhibitory concentration (IC50) was 55.3 ± 2.72 µM in [5] (Homo sapiens, HepG2, 72 h); 31.4 ± 2.71 µM in assay [6] (Homo sapiens, LX-2, 72 h); 5.76 ± 1.92 µM in assay [9]; over 300 µM in assay [7] (Homo sapiens, HEK-293T).

Source of the values: PMC10604990, “Characterization and Investigation of Novel Benzodioxol Derivatives as Antidiabetic Agents: An In Vitro and In Vivo Study in an Animal Model” (Biomolecules, 2023).
